Results published in patent US9914730B2, “Azaquinazoline inhibitors of Atypical protein Kinase C” (Ignyta, Inc., priority 2012, dated 2018).

Target: T1, full-length human PKCι (Homo sapiens, UniProt P41743)
T1 construct: Recombinant, full-length human PKCι expressed in Sf21 insect cells is also commercially available; purchased; host or cells: Sf21 insect cells
T1 sequence (P41743 1-596): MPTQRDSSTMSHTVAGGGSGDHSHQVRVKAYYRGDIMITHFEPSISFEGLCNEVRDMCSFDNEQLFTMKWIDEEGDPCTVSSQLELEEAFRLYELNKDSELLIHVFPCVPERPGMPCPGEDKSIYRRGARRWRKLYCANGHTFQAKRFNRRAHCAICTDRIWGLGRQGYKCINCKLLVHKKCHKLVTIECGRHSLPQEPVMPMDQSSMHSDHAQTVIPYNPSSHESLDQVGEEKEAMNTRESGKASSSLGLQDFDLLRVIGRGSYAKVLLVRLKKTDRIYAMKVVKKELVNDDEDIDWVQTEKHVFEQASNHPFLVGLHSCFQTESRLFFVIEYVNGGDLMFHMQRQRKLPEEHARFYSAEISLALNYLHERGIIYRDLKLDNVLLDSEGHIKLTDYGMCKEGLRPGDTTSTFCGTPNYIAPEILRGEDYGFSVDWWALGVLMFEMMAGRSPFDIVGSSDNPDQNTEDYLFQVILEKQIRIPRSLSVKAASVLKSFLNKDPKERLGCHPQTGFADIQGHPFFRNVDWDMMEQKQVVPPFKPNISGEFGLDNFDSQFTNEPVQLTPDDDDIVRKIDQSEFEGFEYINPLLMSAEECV
Experiment: PKCι IC50 IMAP assay, full-length PKCι at 150 μM ATP
Assay type: biochemical
Details: read-out: IC50 in IMAP assay against full length PKCi at 150 μM ATP
Outline: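 IMAP fluorescence polarisation (ex 485/em 530 nm) read-out; % inhibition set from no-compound (0%) and no-enzyme (100%) controls, IC50 from dose-response curve fit. Sf21-expressed full-length enzyme ~15 pM, 100 nM FAM peptide, ATP 150 μM (5× KM^APP), 60 min at RT.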

| Compound | IC50 [nM] |
| --- | --- |
| C[C@H]1CN(c2nc(-c3ccnc(NC4CCN(CC(F)(F)F)CC4)c3)nc3cncc(C4CC4)c23)CCN1 [Example 2049, {4-[5-Cyclopropyl-4-((S)-3-methyl-piperazin-1-yl)-pyrido[3,4-d]pyrimidin-2-yl]-pyridin-2-yl}-[1-(2,2,2-trifluoro-ethyl)-piperidin-4-yl]-amine] | < 100 |
| CN[C@H](CNc1nc(-c2ccncc2)nc2cncc(OC)c12)Cc1ccccc1 [Example 41, [(2S)-1-{[5-methoxy-2-(pyridin-4-yl)-pyrido[3,4-d]-pyrimidin-4-yl]-amino}-3-phenylpropan-2-yl](methyl)amine] | < 100 |
| CS(=O)(=O)CCN1CCN(c2nc(-c3ccnc(NC(=O)C4CC4)c3)nc3cncc(C4CC4)c23)CC1 [Example 665, Cyclopropane-carboxylic acid (4-{5-cyclopropyl-4-[4-(2-methanesulfonyl-ethyl)-piperazin-1-yl]-pyrido[3,4-d]pyrimidin-2-yl}-pyridin-2-yl)-amide] | 1000 to 10000 |
| COc1cncc2nc(-c3ccnc(Nc4cccc(C(F)(F)F)c4)c3)nc(N3CCNCC3)c12 [Example 446, [4-(5-Methoxy-4-piperazin-1-yl-pyrido[3,4-d]pyrimidin-2-yl)-pyridin-2-yl]-(3-trifluoromethyl-phenyl)-amine] | 100 to 1000 |
| FC(F)(F)Oc1ccc(Nc2cc(-c3nc(N4CCNCC4)c4c(C5CC5)cncc4n3)ccn2)cc1 [Example 2162, [4-(5-Cyclopropyl-4-piperazin-1-yl-pyrido[3,4-d]pyrimidin-2-yl)-pyridin-2-yl]-(4-trifluoromethoxy-phenyl)-amine] | < 100 |
| C[C@H]1CN(c2nc(-c3ccnc4[nH]c(C(C)(C)C)cc34)nc3cncc(C4CCC4)c23)CCN1 [Example 2008, 2-(2-tert-Butyl-1H-pyrrolo[2,3-b]pyridin-4-yl)-5-cyclobutyl-4-((S)-3-methyl-piperazin-1-yl)-pyrido[3,4-d]pyrimidine] | < 100 |
| N[C@H](CNc1nc(-c2ccncc2)nc2c(-c3ccn[nH]3)nccc12)Cc1ccccc1 [Example 89, N-[(2S)-2-amino-3-phenylpropyl]-8-(1H-pyrazol-5-yl)-2-(pyridin-4-yl)pyrido[3,4-d]-pyrimidin-4-amine] | < 100 |
| COc1cncc2nc(-c3ccnc(Nc4cncc(C)c4)c3)nc(N3CCNCC3)c12 [Example 416, [4-(5-Methoxy-4-piperazin-1-yl-pyrido[3,4-d]pyrimidin-2-yl)-pyridin-2-yl]-(5-methyl-pyridin-3-yl)-amine] | < 100 |
| FC(F)(F)c1nc2cc(Nc3cc(-c4nc(N5CCNCC5)c5c(C6CC6)cncc5n4)ccn3)ccc2o1 [Example 2133, [4-(5-Cyclopropyl-4-piperazin-1-yl-pyrido[3,4-d]pyrimidin-2-yl)-pyridin-2-yl]-(2-trifluoromethyl-benzooxazol-5-yl)-amine] | < 100 |
| CN(C)c1ccc(Nc2cc(-c3nc(N4CCNCC4)c4c(C5CC5)cncc4n3)ccn2)cn1 [Example 551, N^5-[4-(5-Cyclopropyl-4-piperazin-1-yl-pyrido[3,4-d]pyrimidin-2-yl)-pyridin-2-yl]-N^2,N^2-dimethyl-pyridine-2,5-diamine] | < 100 |
| NC[C@H](Cc1ccccc1)Nc1nc(-c2ccncc2)nc2cnccc12 [Example 28, N-[(2S)-1-amino-3-phenylpropan-2-yl]-2-(pyridin-4-yl)-pyrido[3,4-d]-pyrimidin-4-amine] | 100 to 1000 |
| COC(=O)C1CN(c2nc(-c3ccncc3)nc3cncc(OC)c23)CCN1 (stereo not shown) [Example 155, 4-(5-Methoxy-2-pyridin-4-yl-pyrido[3,4-d]pyrimidin-4-yl)-piperazine-2-carboxylic acid methyl ester] | 1000 to 10000 |
| FC(F)(F)c1cc2c(-c3nc(N4CCNCC4)c4c(C5CC5)cnc(Cl)c4n3)ccnc2[nH]1 [Example 2071, 8-Chloro-5-cyclopropyl-4-piperazin-1-yl-2-(2-trifluoromethyl-1H-pyrrolo[2,3-b]pyridin-4-yl)-pyrido[3,4-d]pyrimidine] | < 100 |
| COc1cncc2nc(N3CCOCC3)nc(NC[C@@H](N)Cc3ccccc3)c12 [Example 1002, (S)-N^1-(5-Methoxy-2-morpholin-4-yl-pyrido[3,4-d]pyrimidin-4-yl)-3-phenyl-propane-1,2-diamine] | < 100 |

Continued, values first:

| IC50 [nM] | Compound |
| --- | --- |
| < 100 | COc1cncc2nc(-c3ccnc(Nc4ccc(C(N)=O)cn4)c3)nc(N3CCNCC3)c12 [Example 380, 6-[4-(5-Methoxy-4-piperazin-1-yl-pyrido[3,4-d]pyrimidin-2-yl)-pyridin-2-ylamino]-nicotinamide] |
| < 100 | c1ccn2nc(Nc3cc(-c4nc(N5CCNCC5)c5c(C6CC6)cncc5n4)ccn3)cc2c1 [Example 2072, [4-(5-Cyclopropyl-4-piperazin-1-yl-pyrido[3,4-d]pyrimidin-2-yl)-pyridin-2-yl]-pyrazolo[1,5-a]pyridin-2-yl-amine] |
| < 100 | Cc1ccc(C)c(Nc2cc(-c3nc(N4CCNCC4)c4c(C5CC5)cncc4n3)ccn2)c1 [Example 505, [4-(5-Cyclopropyl-4-piperazin-1-yl-pyrido[3,4-d]pyrimidin-2-yl)-pyridin-2-yl]-(2,5-dimethyl-phenyl)-amine] |
| < 100 | c1ccc(C[C@H]2CN(c3nc(N4CCOCC4)nc4cncc(C5CC5)c34)CCN2)cc1 [Example 1017, 4-((S)-3-Benzyl-piperazin-1-yl)-5-cyclopropyl-2-morpholin-4-yl-pyrido[3,4-d]pyrimidine] |
| < 100 | CNC(=O)c1ccc(Nc2cc(-c3nc(N4CCNCC4)c4c(C5CC5)cncc4n3)ccn2)cc1 [Example 841, -[4-(5-Cyclopropyl-4-piperazin-1-yl-pyrido[3,4-d]pyrimidin-2-yl)-pyridin-2-ylamino]-N-methyl-benzamide] |
| < 100 | Fc1cc(F)c(Nc2cc(-c3nc(N4CCNCC4)c4c(C5CC5)cnc(Cl)c4n3)ccn2)nc1F [Example 2178, [4-(8-Chloro-5-cyclopropyl-4-piperazin-1-yl-pyrido[3,4-d]pyrimidin-2-yl)-pyridin-2-yl]-(3,5,6,-trifluoro-pyridin-2-yl)-amine] |
| 100 to 1000 | N[C@@H](CNc1nc(-c2ccncc2)nc2c(-c3ccccn3)nccc12)Cc1ccccc1 [Example 122, (R)-3-Phenyl-N^1-(2-pyridin-4-yl-8-pyridin-2-yl-pyrido[3,4-d]pyrimidin-4-yl)-propane-1,2-diamine] |
| 1000 to 10000 | OCC1CCN(c2nc(-c3ccnc4[nH]c(C(F)(F)F)cc34)nc3cncc(C4CC4)c23)CC1 [Example 1242, {1-[5-Cyclopropyl-2-(2-trifluoromethyl-1H-pyrrolo[2,3-b]pyridin-4-yl)-pyrido[3,4-d]pyrimidin-4-yl]-piperidin-4-yl}-methanol] |
| 100 to 1000 | (3S)-3-benzyl-1-[6- chloro-2-(pyridin-4- yl)pyrido[3,4-d]- pyrimidin-4- yl]piperazine [Example 14] |
| 100 to 1000 | COc1cncc2nc(-c3ccnc(Nc4ncccc4C)c3)nc(N3CCNCC3)c12 [Example 410, [4-(5-Methoxy-4-piperazin-1-yl-pyrido[3,4-d]pyrimidin-2-yl)-pyridin-2-yl]-(3-methyl-pyridin-2-yl)-amine] |
| 100 to 1000 | O[C@@H]1CCN(c2nc(-c3ccnc4[nH]c(C(F)(F)F)cc34)nc3cncc(C4CC4)c23)C[C@H]1O (racemic) [Example 1235, (+/−)-(trans)-1-[5-Cyclopropyl-2-(2-trifluoromethyl-1H-pyrrolo[2,3-b]pyridin-4-yl)-pyrido[3,4-d]pyrimidin-4-yl]-piperidine-3,4-diol] |
